“And” between values parts separate entries of the source, which are not always exact repeats. Equal entries are not always repeated.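 Cultured in 96-well plates, cells were exposed to test compound for 48 hours across five concentrations. GI50 = concentration required for 50% inhibition of growth. TGI is the concentration that stops growth completely.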
Assays:
Experiment in all cases: inhibition of tumour cell growth, NCI panel, 48 h
[1] = system: NCI/ADR-RES ovarian
[2] = system: OVCAR-3 ovarian
[3] = system: CAKI-1 renal
[4] = system: HCC-2998 colon
[5] = system: MDA-MB-231 breast
[6] = system: HT29 colon
[7] = system: M14 melanoma
[8] = system: RPMI-8226 leukemia
[9] = system: EKVX NSCLC
[10] = system: A498 renal

SMILES | GI50 [1] | TGI [1] | GI50 [2] | TGI [2] | GI50 [3] [µM] | TGI [3] | GI50 [4] | TGI [4] | GI50 [5] [µM] | TGI [5] | GI50 [6] | TGI [6] [µM] | GI50 [7] | TGI [7] | GI50 [8] [µM] | TGI [8] [µM] | GI50 [9] [µM] | TGI [9] [µM] | GI50 [10] [µM] | TGI [10]
COc1ccc(NC(=O)c2cccc(C3CCc4c(cc(OC)c(OC)c4OC)O3)c2)cc1 (stereo not drawn) | 2.81 µM | > 100 µM | 3.54 µM | > 100 µM | 3.49 | > 100 µM | 6.01 µM | > 100 µM | 4.13 | > 100 µM | 3.17 µM | > 100 | 2.6 µM | > 100 µM | 1.36 | 7.93 | 3.28 | > 100 | 1.37 | 5.7 µM
NC(=O)c1ncn2c(=O)n(CCCl)nnc12 |  | 496 µM |  | 475 µM | 91.4 | 548 µM |  | 366 µM |  | 584 µM |  | 367 |  | 500 µM |  | 1250 |  | 436 |  | 375 µM
COc1ccc2c(c1)C(=O)c1c-2n(CCCCl)c(=O)c2cc(N)ccc12 | > 100 µM | > 100 µM | > 100 µM | > 100 µM | > 100 | > 100 µM | > 100 µM | > 100 µM | 25.6 | > 95.7 µM | > 100 µM | > 100 | > 100 µM | > 100 µM | > 100 | > 100 | > 100 | > 100 | > 100 | > 100 µM
CCN(CC)CCCNc1cc(OC)c(OC)c2cccnc12 | 15.6 µM | 49 µM | 2.19 µM | 5.13 µM | 2.15 | 29.7 µM | 11.9 µM | 25.7 µM | 6.69 | 51.4 µM | 13.4 µM | 40.3 | 12.6 µM | 37.6 µM | 11.2 | 40.7 | 16.4 | 54.8 | 18.6 | 42 µM
O=C(COc1cccc(/C=C2\Oc3ccc4ccccc4c3C2=O)c1)c1ccc([N+](=O)[O-])cc1 | > 100 µM | > 100 µM | 14.9 µM | 28 µM | 45.9 | > 100 µM | 15.7 µM | > 100 µM | 18.8 | 68.8 µM | 36 µM | > 100 | 18.3 µM | 53.4 µM | 1.12 | 13.3 | > 100 | > 100 | > 100 | > 100 µM
COc1ccc(C(Nc2ccccn2)c2cc(C(C)(C)C)cc(C(C)(C)C)c2O)cc1 (stereo not drawn) |  | > 100 µM |  | 43.6 µM |  | > 100 µM |  | 38.7 µM |  | > 100 µM |  | > 100 |  | 54.9 µM |  | > 100 |  | > 100 |  | > 100 µM
C=C1C(O)C2CC(C)(C)C(=O)C2=C(CC(C)C)C12CC2 (stereo not drawn) | > 100 µM | > 100 µM | > 100 µM | > 100 µM | > 100 | > 100 µM | > 100 µM | > 100 µM | > 100 | > 100 µM | > 100 µM | > 100 | > 100 µM | > 100 µM | 36 | > 100 | > 100 | > 100 | > 100 | > 100 µM
OCC1OC(n2cnc3c(NCc4ccco4)ncnc32)C(O)C1O (stereo not drawn) | 0.675 µM | > 35.7 µM | 1.34 µM | 3.12 µM | 0.369 | 4.33 µM | 3.85 µM | 40 µM | 0.348 | 18.8 µM | 2.1 µM | > 38 | 2.44 µM | 17.2 µM | 3 | 21.3 | 4.73 | 81.7 | 1.59 | 5.5 µM
COc1cc(/C=C/c2ccnc3ccccc23)cc(OC)c1OC | 1.25 µM | 9.32 µM and 4.98 µM | 1.67 µM | 14.6 µM and 4.71 µM | 1.89 | 20.8 µM and 26.8 µM | 3.53 µM | > 100 µM and 38.4 µM | 2.8 | 9.42 µM and 46 µM | 1.72 µM |  | 2.43 µM | 91 µM and 13.8 µM | 6.55 |  | 6.27 | > 100 | 1.6 | 8.91 µM and 5.87 µM
CCC(C)C(=O)OC1CCC=C2C=CC(C)C(CCC3CC(O)CC(=O)O3)C21 (stereo not drawn) |  | > 100 µM |  | > 100 µM |  | 29 µM |  | > 100 µM |  | > 64.7 µM |  | > 100 |  | > 27.5 µM |  | > 100 |  | > 100 |  | > 66 µM
Oc1ccc(/C=N/NC(=S)Nc2cccnc2)nc1 |  | 9.59 µM |  | > 100 µM |  | > 100 µM |  | > 100 µM |  | > 31.6 µM |  | > 100 |  | > 33.3 µM |  | 76.4 |  | > 100 |  | > 81.2 µM
NC(Cc1c[nH]c2cccc(F)c12)C(=O)O (stereo not drawn) | 63.9 µM and 418 µM | 2360 µM | 39.6 µM and 237 µM | 967 µM | 1080 | > 4500 µM | 73.2 µM and 694 µM | 2400 µM | 545 | 2300 µM | 36.5 µM and 300 µM | 2620 | 59.9 µM and 590 µM | > 4500 µM |  | > 4500 | 778 | > 4500 | 1150 | 3670 µM
C/C(=N\NC(=S)N1CCN(c2ccccn2)CC1)c1cccc2cccnc12 |  | 15.4 µM |  | > 29 µM |  | > 100 µM |  | > 58.9 µM |  | > 64.6 µM |  | 21.2 |  | > 47.4 µM |  | 20.2 |  | > 45.3 |  | 71.1 µM
C/C=C(\C)C(=O)O[C@@H]1C=CC(=O)O[C@H]1CNC(=O)[C@H](C)O | 34.6 µM | > 100 µM | 17.4 µM | 37.8 µM | 17.8 | 36.5 µM | 20.4 µM | 40.9 µM | 21.8 | 45.5 µM | 17.7 µM | 40.6 | 18.6 µM | 49.1 µM | 9.12 | 33.3 | 20.9 | 49.5 | 21.2 | 53 µM
CC1(C)CN(CCNc2nccc(-c3c(-c4cccc(O)c4)nc4sccn34)n2)S(=O)(=O)N1 | > 33.2 µM | > 33.2 µM | 12.2 µM | > 33.2 µM | 6.12 | > 27.2 µM | 19.5 µM | > 33.2 µM | 7.94 | > 33.2 µM | 3.2 µM | > 33.2 | 0.317 µM | > 26.4 µM | 16.6 | > 33.2 | > 33.2 | > 33.2 | 1.55 | 19.7 µM
CCC(=C(c1ccc(OCCN2CCCC2)cc1)c1ccc(OCCN2CCCC2)cc1)c1ccc(Cl)cc1 | 0.599 µM | 1.15 µM | 0.624 µM | 1.29 µM | 0.52 | 0.992 µM | 0.566 µM | 1.07 µM | 0.589 | 1.11 µM | 0.511 µM | 1.15 | 0.629 µM | 1.18 µM | 0.674 | 1.53 | 0.666 | 1.4 | 1.28 | 2.82 µM

From PubChem BioAssay (NCI)
